Measurements from US20090117140A1, “Human papilloma virus dominant CD4 T cell epitopes and uses thereof” (priority 2007, published 2009).
“Also recorded” adds a separate entry of the source.

B1: E7 protein: recombinant HPV 16 E7 protein pulsed to autologous mature dendritic cells (protein)
chain: MHGDTPTLHEYMLDLQPETTDLYCYEQLNDSSEEEDEIDGPAGQAEPDRAHYNIVTFCCKCDSTLRLCVQSTHVDIRTLEDLLMGTLGIVCPICSQKP

How the values were obtained:
[1] = system: E7 56-70 specific T-cell clones from subject 15-04; assay: Enzyme-linked immunospot assays defining the core sequence of the CD4 T-cell epitope; details: for Response (spot-forming units) among the six overlapping 10-mer peptides: FIG. 3A, three of the four T-cell clones tested; for Response (spot-forming units) among the six overlapping 10-mer peptides / Number of spot-forming units, 15-mer, 11-mer, 10-mer and 9-mer peptides compared: peptide concentration 10 μM; for Number of spot-forming units, 15-mer, 11-mer, 10-mer and 9-mer peptides compared: FIG. 3B; for Number of spot-forming units with serially diluted peptides: FIG. 3C, clones #45 and #207
[2] = system: Human Leukocyte Antigen class II molecule; assay: Enzyme-linked immunospot assay identifying the restricting Human Leukocyte Antigen molecule; details: allogeneic B-lymphoblastoid cell line cells sharing class II molecules with subject 15-04, E7 56-70 peptide used in the assay
[3] = system: Human Leukocyte Antigen molecule; details: from the literature; cited from earlier work
[4] = system: T-cell clones from subject 15-04; assay: Enzyme-linked immunospot assay for exogenous presentation (pulsed autologous dendritic cells); details: FIG. 2B; clones #11, #207, #304; 2.5×10^3 dendritic cells per well

Molecule	Number of spot-forming units, 15-mer, 11-mer, 10-mer and 9-mer peptides compared [1]	Restriction element of described epitope [3]	other results
CCKCDSTLRL (E7 58-67 peptide from immunodominant epitope region of Human Papilloma Virus 16 E7 protein)	Equally large numbers of spot-forming units; also recorded: equally high number of spot-forming units	–	Response (spot-forming units) among the six overlapping 10-mer peptides [1]: strongest response; also recorded: highest number of spot-forming units; Number of spot-forming units with serially diluted peptides [1]: equivalent numbers of spot forming units; also recorded: equivalent numbers of spot-forming units
CCKCDSTLRLC (E7 58-68 peptide from immunodominant epitope region of Human Papilloma Virus 16 E7 protein)	Equally large numbers of spot-forming units; also recorded: equally high number of spot-forming units	–	Number of spot-forming units with serially diluted peptides [1]: equivalent numbers of spot forming units; also recorded: equivalent numbers of spot-forming units; Restriction element [2]: Human Leukocyte Antigen-DR17 molecule; Restriction element ([2]; listed as HPV 16 E7 58-68): Human Leukocyte Antigen-DR17 molecule; Restriction element ([2]; listed as novel CD4 T-cell epitope): Human Leukocyte Antigen-DR 17 molecule; Restriction element ([2]; listed as novel HPV 16 E7 CD4 T-cell epitope): Human Leukocyte Antigen-DR17 molecule
CKCDSTLRLC (E7 59-68 peptide from immunodominant epitope region of Human Papilloma Virus 16 E7 protein)	Equally large numbers of spot-forming units; also recorded: equally high number of spot-forming units	–	Response (spot-forming units) among the six overlapping 10-mer peptides [1]: strongest responses; also recorded: highest number of spot-forming units; Number of spot-forming units with serially diluted peptides [1]: equivalent numbers of spot forming units; also recorded: equivalent numbers of spot-forming units
E6 43-57: previously described HPV 18 E6 CD4 epitope (EVFEFAFKDLFVVYR; UniProt P06463 43-57, looked up, fragment)	–	Human Leukocyte Antigen-DRB1*15	–
E6 127-141: previously described HPV 16 E6 CD4 epitope (DKKQRFHNIRGRWTG; UniProt P03126 127-141, looked up, fragment)	–	Human Leukocyte Antigen-DRB1*01	–
E7 35-50: previously described Human Papilloma virus-specific CD4 T-cell epitope of the E7 protein (EDEIDGPAGQAEPDRA; UniProt P03129 35-50, looked up, fragment)	–	Human Leukocyte Antigen-DQ2	–
E7 43-77: previously described Human Papilloma virus-specific CD4 T-cell epitope of the E7 protein (GQAEPDRAHYNIVTFCCKCDSTLRLCVQSTHVDIR; UniProt P03129 43-77, looked up, fragment)	–	Human Leukocyte Antigen-DR3	–
E7 50-62: previously described Human Papilloma virus-specific CD4 T-cell epitope of the E7 protein (AHYNIVTFCCKCD; UniProt P03129 50-62, looked up, fragment)	–	Human Leukocyte Antigen-DR15	–
E7 59-67: 9-mer peptide of HPV 16 E7 contained in the 11-mer E7 58-68 (CKCDSTLRL; UniProt P03129 59-67, looked up, fragment)	negative repeatedly	–	–
E7 60-68: 9-mer peptide of HPV 16 E7 contained in the 11-mer E7 58-68 (KCDSTLRLC; UniProt P03129 60-68, looked up, fragment)	negative repeatedly	–	–
E7 61-80: previously described Human Papilloma virus-specific CD4 T-cell epitope of the E7 protein (CDSTLRLCVQSTHVDIRTLE; UniProt P03129 61-80, looked up, fragment)	–	Human Leukocyte Antigen-DR9	–
EPDRAHYNIVTFCCKCDSTLRLCVQ (E7 46-70 peptide from immunodominant epitope region of Human Papilloma Virus 16 E7 protein) [HPV type 16 E7 46-70]	–	–	Restriction element [2]: Human Leukocyte Antigen major histocompatibility complex class II molecule
HPV 16 E7 71-85: previously described HPV 16 E7 epitope, 15 amino acids long (STHVDIRTLEDLLMG; UniProt P03129 71-85, looked up, fragment)	–	Human Leukocyte Antigen-DQB1*02	–
LEDLLMGTL (E7 79-87 control peptide from immunodominant epitope region of Human Papilloma Virus 16 E7 protein) [HPV 16 E7 79-87]	–	Human Leukocyte Antigen-B69	–
B1	–	–	Response (interferon-γ secretion) of T-cell clones to pulsed autologous dendritic cells [4]: demonstrated interferon-γ secretion; also recorded: positive responses
